Where two headings read alike, the source gives them in different places.
How the values were obtained:
[1] = test system: non-small-cell lung cancer (NSCLC) with pleural spread; conditions: 22 patients, photosensitizer 24 hours before surgery, 603 nm light; cited from earlier work
[2] = patients; cited from earlier work
human endothelial cells [3] = assay: Laser treatment of human endothelial cells with SWNT-annexin V complex, SDS method (Alamar Blue); format: cell-based
Procedure: SWNTs with annexin V conjugated using the Fmoc-NH-PEG-NHS linker added via the SDS method were used in a laser test with endothelial cells. […] The endothelial cells were transferred to 24 well plates (5×10^4 cells per well) and grown until 100% confluence was reached. A separate plate was used for each different treatment. The media was warmed up in the incubator at 37° C., and the media was removed from the wells. […] For each plate, the experiment was done with two or three wells.
300 μl of F12K media was added with 2 mM Ca^2+ to the wells, and the laser treatment was performed on each well using a beam with a diameter of 1.8 cm, power level of 3.9 W, and beam time of 130 s (energy density=199 J/cm^2).
Then, SWNT-annexing V was added to the wells as described above.

4T1 mouse mammary tumors = assay: In vivo laser treatment of implanted 4T1 mammary tumors in mice with SWNT-annexin V complex; parameters: species or system BALB/cJ mice
Procedure: In another embodiment, female BALB/cJ mice, age 6 weeks (received from Jackson Laboratory (Bar Harbor, Me.) were treated. Animal experimentation was not started until the animals were 9 weeks old. The animals were kept in a dedicated room in the animal facility located in the Zoology building of the University of Oklahoma. All of the protocols used involving animals were previously submitted and approved by the Institutional Animal Care and Use Committee (IACUC). All of the animals were placed in appropriate cages with food and water in an adequate environment. Each cage hosted five animals. The anesthetics used were ketamine (100 mg/ml) and xylazine (20 mg/ml). In order to prepare the anesthetic solution, 1 ml of ketamine (100 mg/ml) was mixed with 0.5 ml of xylazine (20 mg/ml) and 8.5 ml of sterile saline solution (0.9% NaCl). The dosage used for each animal was equal to 0.1 ml of the stock solution per 10 grams of body weight. Prior to anesthetizing the animals, each of them was weighted using a scale.
In order to evaluate the ability to eradicate the tumors using this therapy in vivo, it was necessary to implant a suitable cancer cell line in the animals. The 4T1 cell line was chosen for this study, since these cells have the ability to replicate at a fast rate and also develop visible tumors in BALB/c mice in a matter of less than one week after implantation. […] After having the eight T-75 flasks growing for 2 days, there are plenty of cells to inject the animals, for each test. The cells are then lifted from the flasks using ACCUTASE® solution (Innovative Cell Technologies, San Diego, Calif.), using the same procedure as for human endothelial cells. […] Knowing that it is necessary to inject 5×10^5 cells/animal (volume=100 μl), the total number of cells was determined. The cell concentration in the sample was evaluated using the standard cell counting procedure. […]
After irradiation, the tumor volumes were monitored every two days. […] The length and width of the tumors was measured using a digital caliper. The tumor volumes were determined by applying the following formula: […]

human endothelial cells [4] = assay: Laser irradiation of human endothelial cells with SWNT-Fmoc-NH-PEG-NHS-annexin V bound (Alamar Blue); format: cell-based; conditions: 20 nM protein
Procedure: The procedure described above was applied using the human annexin V protein but any Annexin described herein could be used. […] The media was warmed up in the incubator at 37° C. and then removed from the wells. […] For each plate, the experiment was performed in triplets.
The samples (300 μl/well) were then transferred to a 96-microtiter plate, and fluorescence was measured at 590 nm (using excitation at 530 nm).

[5] = test system: human endothelial cells with phosphatidylserine exposed by H2O2; assay: Binding of SWNT-annexin V (biotinylated) to human endothelial cells in vitro (streptavidin-HRP/OPD, A450)
Procedure: Purified recombinant annexin V was labeled with biotin for detection (SureLINK chromophoric biotin labeling kit; KPL, Gaithersburg, Md.) with a 40-molar excess of biotin. Biotin labeling of annexin V has been found previously not to impair the PS-binding of annexin V. The following procedure was used to measure the binding of the SWNT-annexin V (biotinylated) to human endothelial cells in vitro.
Human endothelial cells (American Type Culture Collection, Manassas, Va.) were grown as monolayers in T-75 flasks. […] The cells were fixed by adding 100 μl of phosphate buffered saline (PBS) buffer containing 0.25% glutaraldehyde and Ca^2+ (2 mM). Excess aldehyde groups were quenched by incubating with 50 mM of NH4Cl (100 μl) diluted in PBS buffer containing Ca^2+ (2 mM) for 5 minutes. The SWNT-annexin V conjugate was diluted in 0.5% BSA diluted in PBS buffer and Ca^2+ (2 mM) with an initial concentration of […]. This concentrated fusion protein solution was serially diluted 2-fold until a final concentration of 6.7 μM. SWNT-CMC-annexin V (300 μl) was added to wells in the increasing concentration of SWNT-CMC-annexin V. For each concentration of SWNT-CMC-annexin V, the experiment was done in duplicate and incubated for 2 hours. Plates were washed with 0.5% BSA diluted in PBS buffer and Ca^2+ (2 mM) (300 μl). 300 μl of streptadivin-HRP (horseradish peroxidase) (2 μg/ml) was added and incubated for 1 hour at room temperature. The plate was then washed with PBS (300 μl), and the chromogenic substrate O-phenylenediamine (OPD, 300 μl) was added and incubated for 30 minutes. 100 μl of the supernatant was then transferred to 96-well plates, and absorbance was measured at 450 nm (Biotek KC4 microtiter plate reader) using a blank that omits the addition of SWNT-annexin V described above.
The data obtained above for the binding of SWNT-CMC-annexin V to human endothelial cells in vitro was used in the determination of the dissociation constant (Kd). […]

human endothelial cells [6] = test system: human endothelial cells
Procedure: The effects of irradiation of SWNTs bound to endothelial cells were tested in vitro. […] The following procedure was used to treat human endothelial cells in vitro with SWNT-CMC-annexin V bound.
Cells were grown using F12K media containing 10% FBS until they reach 85% confluence in T-75 flasks, and the cells were then counted using a hemocytometer. Cancer cells (5×10^4) were transferred to 24 well plates (6 plates, with 3 wells per plate containing cells) and grown until 85% confluence was reached. Two extensive dialyses were performed (with a total dilution factor of 1,000,000×) in order to remove the sodium azide from the SWNT-CMC-biotinylated annexin V. The first dialysis for 3 hours (1000×) was performed using modification buffer (100 mM sodium phosphate, 150 mM NaCl, pH 7.2-7.4). The buffer was changed and the dialysis continued for 4 more hours. 1 ml of the suspension of SWNT-CMC-biotinylated annexin V was used. PS was exposed on the surface of cells by the addition of hydrogen peroxide (1 mM), and the cells were treated with 300 μl binding buffer containing the F12K media containing 1 mM of H2O2 for 1 hour at 37° C. The plates were washed 4× with F12K media (containing 10% FBS) (300 μl), and SWNT-CMC-biotinylated-annexin V (300 μl) was added to wells at a concentration of 20 nM. In order to obtain this concentration, the protein was diluted using F12K media (containing 10% FBS plus 2 mM Ca^2+). For each plate, the experiment was done in triplets. The plates were incubated for 2 hours in the incubator and then washed 4× with F12K media (containing 10% FBS plus 2 mM Ca^2+) (300 μl). […] Cell viability was evaluated one hour later by adding Alamar Blue in an amount equal to 10% of culture media (30 μl of Alamar Blue+300 μl of media) volume to the wells. […] Fluorescence was then measured at 590 nm (using excitation at 530 nm). […] The cells that were attached were treated with trypsin, and the cells were combined in the 96-well plates and counted in a hemocytometer. […]

[7] = human endothelial cells, FIG. 1

porfimer sodium [porfirmer sodium]
median survival [1]: 21 months | side effect [2]: prolonged skin photosensitivity

SWNT-annexin V: SWNTs with annexin V conjugated using the Fmoc-NH-PEG-NHS linker added via the SDS method
cell viability (human endothelial cells [3]; 0.89 mg/L SWNT, 299 J/cm^2, hydrogen peroxide, versus 199 J/cm^2): again lower | reduction of cell viability compared with untreated cells (human endothelial cells [3]; 0.89 mg/L SWNTs, laser energy 199 J/cm^2, hydrogen peroxide, 100% confluent cells): 60% | effect on cell viability (human endothelial cells [3]; laser at 199 J/cm^2, 0.06-0.89 mg/L SWNT, no H2O2, significant (p<0.05) at 0.89 mg/L): concentration-dependent effect on cell viability | effect on the cells (Alamar Blue) (human endothelial cells [3]; without laser (plate 2, 0.06 mg/L SWNT)): no effect on the cells

O=P1(N(CCCl)CCCl)NCCCO1 (centres unmarked) [CY, cyclophosphamide]
effect of addition of CY on tumor volume reduction (4T1 mouse mammary tumors; CY 50 mg/kg i.p. added to SWNTs+Laser): did not translate into a significant difference | effect of CY on metastatic nodules compared to laser+SWNT treatment alone (4T1 mouse mammary tumors; lungs): did not lead to fewer metastatic nodules | effect of addition of CY on survival (4T1 mouse mammary tumors; treatment group that received CY compared to the one that did not): increased survival

SWNT-Fmoc-NH-PEG-NHS-annexin V: Human annexin V attached via Fmoc-NH-PEG-NHS linker adsorbed to SWNTs dispersed with sodium cholate
effect on the cells (Alamar Blue) (human endothelial cells [4]; with laser 980 nm 1.50 W/cm^2 for 130 seconds (195 J/cm^2), H2O2, 85% confluence): killing virtually all of the cells | effect on the cells (Alamar Blue) (human endothelial cells [4]; without laser): no effect on the cells

SWNT-CMC-annexin V: Recombinant annexin V (biotinylated) conjugated via EDC/NHS to carboxymethylcellulose (30 kDa) adsorbed to single-walled carbon nanotubes
Kd ([5]; binding to human endothelial cells in vitro, PS exposed with 1 mM H2O2, fit with Prism 5, read-out: dissociation constant (Kd)): 2.9 nM | binding to the cells [5, 7]: binding to the cells increased as the annexin V-SWNT complex concentration increased | concentration above which transition from negligible binding to measurable binding occurred [5, 7]: > 1000 pM | difference in RFU between cells with nanotubes and cells without nanotubes (human endothelial cells [6]): no significant difference | cell number at 4 W/cm^2 relative to 0 W/cm^2 (human endothelial cells [6]; 20 nM complex bound, 980 nm, 20 J/cm^2, hemocytometer): 50% | difference in RFU between cells with nanotubes and cells without nanotubes (human endothelial cells [6]; power level of 2 W/cm^2, 980 nm, 20 J/cm^2): no significant difference

Reference: patent US9504745B2, “Compositions and methods for cancer treatment using targeted carbon nanotubes” (The Board of Regents of the University of Oklahoma, priority 2007, dated 2016)
